Data taken from the supplement of paper PMC11208160.

Assay: recombinant barcode read abundance after kanamycin selection (control-corrected) (log10(CPM+1)); higher = more efficient recombination; sequences stand for … in AGTGCAGAGAAAATCGGCCAGTTTTCTCTGCCTGCAGTCCGCATGCCGT…AGATTTATGCAGCGGACTGCCTTTCTCCCAAAGTGATAAACCGGACAGTATCATGGACCGGTTTTCCCGGTAATCCGTATTTGCAAGGTTGGTTTCACT; site = the 11-nt target
Procedure, shortened: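 Each value is log10(CPM+1). It describes recombination efficiency, taken as averaged, control-corrected counts per million of barcodes at recombinant junctions. The pooled E. coli library paired targets with IS621 bridge RNA target-binding loops, was co-electroporated with a donor plasmid, and was plated twice on chloramphenicol/ampicillin LB agar (control) and twice on chloramphenicol/ampicillin/kanamycin containing 0.1 mM IPTG.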
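Also: IS621 recombinase and bridge RNA in Escherichia coli cells.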

CTGTCGACTTGGGTTCTAACCTGTTGCCT (site CTATCCACTAG)
recombinant barcode read abundance (log10): 0.0154

CTGTCGACTTGGGTTCTAACCTGTTGCCT (site CTGTCGACTAG)
recombinant barcode read abundance (log10): 0.286

CTGTCTACTTGGGTTCTAACCTGTTGCCT (site CAGTCTACTAG)
recombinant barcode read abundance (log10): 0.0294

CTGTCTACTTGGGTTCTAACCTGTTGCCT (site CCGTCTACTAG)
recombinant barcode read abundance (log10): 0.197

CTGTCTACTTGGGTTCTAACCTGTTGCCT (site CGGTCTACTAG)
recombinant barcode read abundance (log10): 0.134

CTGTCTACTTGGGTTCTAACCTGTTGCCT (site CTGTCTACTAG)
recombinant barcode read abundance (log10): 0.0179

CTTACTACTTGGGTTCTAACCTGTTGCCT (site ATCACTACTAG)
recombinant barcode read abundance (log10): 0.105

CTTACTACTTGGGTTCTAACCTGTTGCCT (site CTTACTACTAG)
recombinant barcode read abundance (log10): 0.126

CTTAGGACTTGGGTTCTAACCTGTTGCCT (site CTTAGGACTAG)
recombinant barcode read abundance (log10): 0.205

CTTAGGACTTGGGTTCTAACCTGTTGCCT (site CTTAGGACTCG)
recombinant barcode read abundance (log10): 0.0406

CTTAGGACTTGGGTTCTAACCTGTTGCCT (site CTTAGGACTGG)
recombinant barcode read abundance (log10): 0.136

CTTAGGACTTGGGTTCTAACCTGTTGCCT (site CTTAGGACTTG)
recombinant barcode read abundance (log10): 0.0473

CTTCAACCTTGGGTTCTAACCTGTTGCCT (site CTTCAACCTAG)
recombinant barcode read abundance (log10): 1.75

CTTCAACCTTGGGTTCTAACCTGTTGCCT (site CTTCACCCTAG)
recombinant barcode read abundance (log10): 0.215

CTTCAACCTTGGGTTCTAACCTGTTGCCT (site CTTCAGCCTAG)
recombinant barcode read abundance (log10): 0.0746

CTTCAACCTTGGGTTCTAACCTGTTGCCT (site CTTCATCCTAG)
recombinant barcode read abundance (log10): 0.139

CTTCACACTTGGGTTCTAACCTGTTGCAT (site CTTCACACTAT)
recombinant barcode read abundance (log10): 1.7

CTTCACACTTGGGTTCTAACCTGTTGCAT (site CTTCACGCTAG)
recombinant barcode read abundance (log10): 0.316

CTTCAGACTTGGGTTCTAACCTGTTGCTA (site CCTCAGACTTC)
recombinant barcode read abundance (log10): 0.0983

CTTCAGACTTGGGTTCTAACCTGTTGCTA (site CTTCAGACTTA)
recombinant barcode read abundance (log10): 1.43

CTTCATTCTTGGGTTCTAACCTGTTGCCT (site CTTCATTCTAG)
recombinant barcode read abundance (log10): 0.102

CTTCATTCTTGGGTTCTAACCTGTTGCCT (site TGCTGGGCTCA)
recombinant barcode read abundance (log10): 0.0303

CTTCGAGCTTGGGTTCTAACCTGTTGCGG (site CTTCGAGCTCA)
recombinant barcode read abundance (log10): 0.0538

CTTCGAGCTTGGGTTCTAACCTGTTGCGG (site CTTCGAGCTCC)
recombinant barcode read abundance (log10): 0.98

CTTCGAGCTTGGGTTCTAACCTGTTGCGG (site CTTCGAGCTCG)
recombinant barcode read abundance (log10): 0.027

CTTCGAGCTTGGGTTCTAACCTGTTGCGG (site CTTCGAGCTCT)
recombinant barcode read abundance (log10): 0.658

CTTCGTACTTGGGTTCTAACCTGTTGCCA (site CTCCGTACTCG)
recombinant barcode read abundance (log10): 0.126

CTTCGTACTTGGGTTCTAACCTGTTGCCA (site CTTCGTACTTG)
recombinant barcode read abundance (log10): 0.213

CTTCGTCCTTGGGTTCTAACCTGTTGCCT (site CTTCGTCCTAA)
recombinant barcode read abundance (log10): 0.132

CTTCGTCCTTGGGTTCTAACCTGTTGCCT (site CTTCGTCCTAC)
recombinant barcode read abundance (log10): 0.0309

CTTCGTCCTTGGGTTCTAACCTGTTGCCT (site CTTCGTCCTAG)
recombinant barcode read abundance (log10): 0.804

CTTCGTCCTTGGGTTCTAACCTGTTGCCT (site CTTCGTCCTAT)
recombinant barcode read abundance (log10): 0.0799
